Values after ≈ are worked out from the molar mass of the structure shown.
Key:
Assay in all cases: MIC, standard broth micro-dilution assay
Format in all cases: cell-based
[1] = tested on: Entercoccus faecalis 2041
Procedure: (§1) The formula I compounds have in vitro and in vivo activity against Gram-positive pathogenic bacteria. The MIC's were determined using a standard broth micro-dilution assay.

[2] = tested on: Entercoccus gallinarum 245
Procedure: as §1

[3] = tested on: Entercoccus faecalis 276
Procedure: as §1

Row | Compound | MIC [1] | MIC [2] | MIC [3]
1 | CNC(CC(C)C)C(=O)NC1C(=O)NC(CC(N)=O)C(=O)NC2C(=O)NC3C(=O)NC(C(=O)NC(C(=O)O)c4cc(O)cc(O)c4-c4cc3ccc4O)C(OC3CC(C)(N)C(O)C(C)O3)c3ccc(c(Cl)c3)Oc3cc2cc(c3OC2OC(CO)C(O)C(O)C2OC2CC(C)(NCc3ccc(OCCOCCCl)cc3)C(O)C(C)O2)Oc2ccc(cc2Cl)C1O (stereo not drawn) [Compound 75] | ≤ 0.06 µg/mL | 4 µg/mL (≈ 2.22 µM) | ≤ 0.06 µg/mL
2 | CNC(CC(C)C)C(=O)NC1C(=O)NC(CC(N)=O)C(=O)NC2C(=O)NC3C(=O)NC(C(=O)NC(C(=O)O)c4cc(O)cc(O)c4-c4cc3ccc4O)C(OC3CC(C)(N)C(O)C(C)O3)c3ccc(c(Cl)c3)Oc3cc2cc(c3OC2OC(CO)C(O)C(O)C2OC2CC(C)(NCc3cccc4ccccc34)C(O)C(C)O2)Oc2ccc(cc2Cl)C1O (stereo not drawn) [Compound 3, 1-naphthylmethyl] | ≤ 0.06 µg/mL | ≤ 0.06 µg/mL | ≤ 0.06 µg/mL
3 | CNC(CC(C)C)C(=O)NC1C(=O)NC(CC(N)=O)C(=O)NC2C(=O)NC3C(=O)NC(C(=O)NC(C(=O)O)c4cc(O)cc(O)c4-c4cc3ccc4O)C(OC3CC(C)(N)C(O)C(C)O3)c3ccc(c(Cl)c3)Oc3cc2cc(c3OC2OC(CO)C(O)C(O)C2OC2CC(C)(NCCc3ccc4ccccc4c3)C(O)C(C)O2)Oc2ccc(cc2Cl)C1O (stereo not drawn) [Compound 179, 2-[2-napthyl]ethyl] | ≤ 0.06 µg/mL | 1 µg/mL (≈ 0.573 µM) | ≤ 0.06 µg/mL
4 | 4-[3-trifluoromethylphenoxy]-3-nitrobenzyl [Compound 114] | 0.25 µg/mL | 2 µg/mL | 1 µg/mL
5 | CNC(CC(C)C)C(=O)NC1C(=O)NC(CC(N)=O)C(=O)NC2C(=O)NC3C(=O)NC(C(=O)NC(C(=O)O)c4cc(O)cc(O)c4-c4cc3ccc4O)C(OC3CC(C)(N)C(O)C(C)O3)c3ccc(c(Cl)c3)Oc3cc2cc(c3OC2OC(CO)C(O)C(O)C2OC2CC(C)(NCc3ccc(-c4ccc(C)cc4)cc3C)C(O)C(C)O2)Oc2ccc(cc2Cl)C1O (stereo not drawn) [Compound 222, 4-[4-methylphenyl]-2-methylbenzyl] | ≤ 0.06 µg/mL | 1 µg/mL (≈ 0.56 µM) | ≤ 0.06 µg/mL
6 | CN[C@H](CC(C)C)C(=O)N[C@H]1C(=O)N[C@@H](CC(N)=O)C(=O)N[C@H]2C(=O)N[C@H]3C(=O)N[C@H](C(=O)N[C@H](C(=O)O)c4cc(O)cc(O)c4-c4cc3ccc4O)[C@H](O[C@H]3C[C@](C)(N)[C@@H](O)[C@H](C)O3)c3ccc(c(Cl)c3)Oc3cc2cc(c3O[C@@H]2O[C@H](CO)[C@@H](O)[C@H](O)[C@H]2O[C@H]2C[C@](C)(NCc3ccc(Oc4ccc(C(C)(C)C)cc4)cc3)[C@@H](O)[C@H](C)O2)Oc2ccc(cc2Cl)[C@H]1O [Compound 96, 4-[4-t-butylphenoxy]benzyl] | 1 µg/mL (≈ 0.546 µM) | 2 µg/mL (≈ 1.09 µM) | 0.5 µg/mL (≈ 0.273 µM)
7 | CNC(CC(C)C)C(=O)NC1C(=O)NC(CC(N)=O)C(=O)NC2C(=O)NC3C(=O)NC(C(=O)NC(C(=O)O)c4cc(O)cc(O)c4-c4cc3ccc4O)C(OC3CC(C)(N)C(O)C(C)O3)c3ccc(c(Cl)c3)Oc3cc2cc(c3OC2OC(CO)C(O)C(O)C2OC2CC(C)(NCc3ccc(S(=O)(=O)N4CCCC4)cc3)C(O)C(C)O2)Oc2ccc(cc2Cl)C1O (stereo not drawn) [Compound 174, 4-[1-pyrrolidinosulfonyl]benzyl] | ≤ 0.06 µg/mL | 16 µg/mL (≈ 8.81 µM) | ≤ 0.06 µg/mL
8 | CNC(CC(C)C)C(=O)NC1C(=O)NC(CC(N)=O)C(=O)NC2C(=O)NC3C(=O)NC(C(=O)NC(C(=O)O)c4cc(O)cc(O)c4-c4cc3ccc4O)C(OC3CC(C)(N)C(O)C(C)O3)c3ccc(c(Cl)c3)Oc3cc2cc(c3OC2OC(CO)C(O)C(O)C2OC2CC(C)(NCc3ccc(-c4ccccc4)s3)C(O)C(C)O2)Oc2ccc(cc2Cl)C1O (stereo not drawn) [Compound 67, 5-phenyl-2-thienylmethyl] | ≤ 0.06 µg/mL | 2 µg/mL (≈ 1.13 µM) | ≤ 0.06 µg/mL
9 | CNC(CC(C)C)C(=O)NC1C(=O)NC(CC(N)=O)C(=O)NC2C(=O)NC3C(=O)NC(C(=O)NC(C(=O)O)c4cc(O)cc(O)c4-c4cc3ccc4O)C(OC3CC(C)(N)C(O)C(C)O3)c3ccc(c(Cl)c3)Oc3cc2cc(c3OC2OC(CO)C(O)C(O)C2OC2CC(C)(NCCCc3ccc(OC)cc3)C(O)C(C)O2)Oc2ccc(cc2Cl)C1O (stereo not drawn) [Compound 175, 3-[4-methoxyphenyl]propyl] | ≤ 0.06 µg/mL | 4 µg/mL (≈ 2.3 µM) | ≤ 0.06 µg/mL
10 | CNC(CC(C)C)C(=O)NC1C(=O)NC(CC(N)=O)C(=O)NC2C(=O)NC3C(=O)NC(C(=O)NC(C(=O)O)c4cc(O)cc(O)c4-c4cc3ccc4O)C(OC3CC(C)(N)C(O)C(C)O3)c3ccc(c(Cl)c3)Oc3cc2cc(c3OC2OC(CO)C(O)C(O)C2OC2CC(C)(NCC34CC5CC(CC(C5)C3)C4)C(O)C(C)O2)Oc2ccc(cc2Cl)C1O (stereo not drawn) [Compound 141, 1-adamantylmethyl] | ≤ 0.06 µg/mL | 4 µg/mL (≈ 2.3 µM) | 0.5 µg/mL (≈ 0.287 µM)
11 | CNC(CC(C)C)C(=O)NC1C(=O)NC(CC(N)=O)C(=O)NC2C(=O)NC3C(=O)NC(C(=O)NC(C(=O)O)c4cc(O)cc(O)c4-c4cc3ccc4O)C(OC3CC(C)(N)C(O)C(C)O3)c3ccc(c(Cl)c3)Oc3cc2cc(c3OC2OC(CO)C(O)C(O)C2OC2CC(C)(NCc3ccc(-c4ccccc4)cc3F)C(O)C(C)O2)Oc2ccc(cc2Cl)C1O (stereo not drawn) [Compound 206, 4-phenyl-2-fluorobenzyl] | 0.25 µg/mL (≈ 0.141 µM) | 1 µg/mL (≈ 0.563 µM) | ≤ 0.06 µg/mL
12 | CNC(CC(C)C)C(=O)NC1C(=O)NC(CC(N)=O)C(=O)NC2C(=O)NC3C(=O)NC(C(=O)NC(C(=O)O)c4cc(O)cc(O)c4-c4cc3ccc4O)C(OC3CC(C)(N)C(O)C(C)O3)c3ccc(c(Cl)c3)Oc3cc2cc(c3OC2OC(CO)C(O)C(O)C2OC2CC(C)(NCc3c4ccccc4c(Cl)c4ccccc34)C(O)C(C)O2)Oc2ccc(cc2Cl)C1O (stereo not drawn) [Compound 18, 9-[10-chloro]anthranylmethyl] | 0.25 µg/mL (≈ 0.138 µM) | 1 µg/mL (≈ 0.55 µM) | 1 µg/mL (≈ 0.55 µM)
13 | CNC(CC(C)C)C(=O)NC1C(=O)NC(CC(N)=O)C(=O)NC2C(=O)NC3C(=O)NC(C(=O)NC(C(=O)O)c4cc(O)cc(O)c4-c4cc3ccc4O)C(OC3CC(C)(N)C(O)C(C)O3)c3ccc(cc3)Oc3cc2cc(c3OC2OC(CO)C(O)C(O)C2OC2CC(C)(NCc3ccc(Oc4ccccc4)cc3)C(O)C(C)O2)Oc2ccc(cc2)C1O (stereo not drawn) [Compound 184, 4-phenoxybenzyl] | 1 µg/mL (≈ 0.586 µM) | 4 µg/mL (≈ 2.34 µM) | 0.5 µg/mL (≈ 0.293 µM)
14 | CNC(CC(C)C)C(=O)NC1C(=O)NC(CC(N)=O)C(=O)NC2C(=O)NC3C(=O)NC(C(=O)NC(C(=O)O)c4cc(O)cc(O)c4-c4cc3ccc4O)C(OC3CC(C)(N)C(O)C(C)O3)c3ccc(c(Cl)c3)Oc3cc2cc(c3OC2OC(CO)C(O)C(O)C2OC2CC(C)(NCc3cccc(Sc4ccc(C(C)(C)C)cc4)c3)C(O)C(C)O2)Oc2ccc(cc2Cl)C1O (stereo not drawn) [Compound 228, 3-[4-t-butyl-phenylthio]benzyl] | 0.25 µg/mL (≈ 0.135 µM) | 4 µg/mL (≈ 2.17 µM) | 1 µg/mL (≈ 0.541 µM)
15 | CNC(CC(C)C)C(=O)NC1C(=O)NC(CC(N)=O)C(=O)NC2C(=O)NC3C(=O)NC(C(=O)NC(C(=O)O)c4cc(O)cc(O)c4-c4cc3ccc4O)C(OC3CC(C)(N)C(O)C(C)O3)c3ccc(c(Cl)c3)Oc3cc2cc(c3OC2OC(CO)C(O)C(O)C2OC2CC(C)(NCc3cccc(OCC4CCCCC4)c3)C(O)C(C)O2)Oc2ccc(cc2Cl)C1O (stereo not drawn) [Compound 123, 3-[cyclohexylmethoxy]benzyl] | ≤ 0.06 µg/mL | 1 µg/mL (≈ 0.557 µM) | 0.25 µg/mL (≈ 0.139 µM)

Source: patent US5843889A, “Glycopeptide antibiotic derivatives” (Eli Lilly and Company, priority 1997, dated 1998)
